Experimental findings from patent US8299048B2, “Hexahydrocyclopentyl[f]indazole sulfonamides and derivatives thereof as selective glucocorticoid receptor modulators” (Merck Sharp & Dohme Corp., priority 2008, dated 2012) are described below.

Structures are written as SMILES.

Assay [1] deals with T1, human GR (Homo sapiens, UniProt P04150).
T1 sequence (P04150 1-777): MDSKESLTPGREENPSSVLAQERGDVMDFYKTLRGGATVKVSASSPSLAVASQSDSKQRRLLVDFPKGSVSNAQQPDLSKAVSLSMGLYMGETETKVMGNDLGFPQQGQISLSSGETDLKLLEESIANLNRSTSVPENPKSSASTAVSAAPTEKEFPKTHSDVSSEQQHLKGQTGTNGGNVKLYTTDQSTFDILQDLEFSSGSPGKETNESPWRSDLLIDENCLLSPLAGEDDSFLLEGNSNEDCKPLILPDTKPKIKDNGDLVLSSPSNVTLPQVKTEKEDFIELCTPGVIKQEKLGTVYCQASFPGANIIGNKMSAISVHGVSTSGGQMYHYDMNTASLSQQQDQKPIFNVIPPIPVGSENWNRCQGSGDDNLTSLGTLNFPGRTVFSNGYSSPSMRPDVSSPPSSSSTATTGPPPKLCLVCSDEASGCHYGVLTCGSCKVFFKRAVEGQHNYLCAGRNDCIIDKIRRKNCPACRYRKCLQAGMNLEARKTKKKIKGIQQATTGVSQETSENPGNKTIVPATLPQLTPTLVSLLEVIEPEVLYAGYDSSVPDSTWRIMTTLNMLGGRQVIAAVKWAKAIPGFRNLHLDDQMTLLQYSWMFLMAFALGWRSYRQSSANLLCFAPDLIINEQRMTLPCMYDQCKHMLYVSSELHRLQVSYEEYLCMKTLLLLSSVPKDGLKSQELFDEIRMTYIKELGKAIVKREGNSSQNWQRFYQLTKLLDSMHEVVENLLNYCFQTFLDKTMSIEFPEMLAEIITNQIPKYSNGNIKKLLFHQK
Put plainly: Trans-Activation Modulation of Glucocorticoid Receptor (GRAMMER), MMTV-LUC reporter, agonist mode. Conditions: for Emax: A549, A549 cells, maximum activity, read-out: Transactivation A549 Cells GRAMMER Emax; for EC50: A549 cells, inflection point, read-out: Transactivation A549 Cells GRAMMER IP. Further details: endogenous in cells. In kind it is cell-based. A digest of the protocol: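 Readout is luciferase from a modified MMTV LTR promoter after 24 h compound exposure alongside 10 nM dexamethasone (100% activity reference), DMSO ≤1%.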

The target in assay [2] is T1, human GR. Briefly: Transrepression Assay (GITAR), TNFα-β-lactamase reporter in U937 cells. Further details: U937 cells contain an endogenous glucocorticoid receptor (GR); endogenous in cells; host or cells: U937 cells stably transfected with the TNF-alpha promoter/beta-lactamase reporter. Particulars: for GITAR > GRAMM % SEP: GITAR Emax minus GRAMMER Emax; for EC50: U937 cells, inflection point, read-out: Transrepression U937 Cells GITAR IP. The class given is cell-based. The gist of the method:
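First, U937 reporter cells (TNF-α promoter–β-lactamase, native GR) received compound for 30–45 min at 37 °C. Next, PMA (5 ng/ml) and LPS (100 ng/ml) final were added for about 18 hr. Finally, CCF2-AM loading gave the read-out, with 100 nM dexamethasone as 100%.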

Where [3] appears, read: U-937, U937 cells, maximum activity, read-out: Transrepression U937 Cells GITAR Emax.
Where [4] appears, read: U-937, activity repressed by 100 nM dexamethasone alone set as 100%, read-out: maximal activity in the transrepression (GITAR) assay.

In the case of `C[C@]12Cc3cnn(-c4ccc(F)cc4)c3C=C1CC[C@@H]2CN(CC#N)S(=O)(=O)c1ccccc1-c1ccccc1` [Example 53, N-(cyanomethyl)-N-{[(4αR,5S)-1-(4-fluorophenyl)-4α-methyl-1,4,4α,5,6,7-hexahydrocyclopenta[f]indazol-5-yl]methyl}biphenyl-2-sulfonamide], the Emax at human GR [1] is 18.1%; on human GR [2] (setting [3]) it was 54%; on human GR [2] (setting [4]), over 5%. In addition, the figures for the EC50 on human GR [1] and at human GR [2] were 866 nM and 832 nM, respectively. For the same compound, the “GITAR > GRAMM % SEP” value on human GR [2] is listed as 36.0%.
Take `C[C@]12Cc3cnn(-c4ccc(F)cc4)c3C=C1CC[C@@H]2CN(CC#N)S(=O)(=O)c1ccccc1C(F)(F)F` [Example 54, N-(cyanomethyl)-N-{[(4αR,5S)-1-(4-fluorophenyl)-4α-methyl-1,4,4α,5,6,7-hexahydrocyclopenta[f]indazol-5-yl]methyl}-2-(trifluoromethyl)benzenesulfonamide]: the Emax at human GR [1] was 8.2%; on human GR [2] (setting [3]), 31.3%; at human GR [2] (setting [4]) it was over 5%. The results for the EC50 at human GR [1] and on human GR [2] were 1080 nM and 1100 nM, respectively. For the same compound, the “GITAR > GRAMM % SEP” value on human GR [2] was found to be 23.1%.
Take `C[C@]12Cc3cnn(-c4ccc(F)cc4)c3C=C1CC[C@@H]2CN(CC#N)S(=O)(=O)c1ccccc1C#N` [Example 55]: the Emax on human GR [1] is 47.7%; on human GR [2] (setting [3]) it was 83.4%; on human GR [2] (setting [4]), over 5%. Besides, the EC50 on human GR [1] was 549 nM; on human GR [2], 337 nM. Besides, the “GITAR > GRAMM % SEP” value at human GR [2] worked out at 35.7%.
As to `Cc1oncc1S(=O)(=O)N(CCO)C[C@H]1CCC2=Cc3c(cnn3-c3ccc(F)cc3)C[C@@]21C` [Example 56, N-{[(4αR,5S)-1-(4-fluorophenyl)-4α-methyl-1,4,4α,5,6,7-hexahydrocyclopenta[f]indazol-5-yl]methyl}-N-(2-hydroxyethyl)-5-methylisoxazole-4-sulfonamide], the Emax at human GR [1] was 50.9%; at human GR [2] (setting [3]), 86.9%; at human GR [2] (setting [4]), over 5%. Moreover, the EC50 was 805 nM on human GR [1] and 643 nM on human GR [2]. Also, the “GITAR > GRAMM % SEP” value on human GR [2] was determined as 36.1%.
As to `C[C@]12Cc3cnn(-c4ccc(F)cc4)c3C=C1CC[C@@H]2CN(CCO)S(=O)(=O)c1cc(Cl)c(Cl)s1` [Example 58, 4,5-dichloro-N-{[(4αR,5S)-1-(4-fluorophenyl)-4α-methyl-1,4,4α,5,6,7-hexahydrocyclopenta[f]indazol-5-yl]methyl}-N-(2-hydroxyethyl)thiophene-2-sulfonamide], the Emax at human GR [1] is 3.1%; at human GR [2] (setting [3]) it was 28.8%; on human GR [2] (setting [4]), over 5%. Further, the values for the EC50 at human GR [1] and on human GR [2] were 1080 nM and 737 nM, respectively. For the same compound, the “GITAR > GRAMM % SEP” value on human GR [2] is 25.7%.
In the case of `C[C@]12Cc3cnn(-c4ccc(F)cc4)c3C=C1CC[C@@H]2CN(CCO)S(=O)(=O)c1ccc(F)c(F)c1` [Example 59], the Emax at human GR [1] is 41.3%; at human GR [2] (setting [3]), 80.9%; on human GR [2] (setting [4]) it was over 5%. For the same compound, the EC50 worked out at 437 nM on human GR [1] and 538 nM on human GR [2]. Also, the “GITAR > GRAMM % SEP” value on human GR [2] is given as 39.6%.
`C[C@]12Cc3cnn(-c4ccc(F)cc4)c3C=C1CC[C@@H]2CN(CCO)S(=O)(=O)c1ccc(C#N)cc1Cl` [Example 60, 2-chloro-4-cyano-N-{[(4αR,5S)-1-(4-fluorophenyl)-4α-methyl-1,4,4α,5,6,7-hexahydrocyclopenta[f]indazol-5-yl]methyl}-N-(2-hydroxyethyl)benezenesulfonamide]: the Emax on human GR [1] is 23%; at human GR [2] (setting [3]) it was 52%; at human GR [2] (setting [4]), over 5%. For the same compound, the EC50 on human GR [1] worked out at 777 nM; on human GR [2], 813 nM. For the same compound, on human GR [2], the “GITAR > GRAMM % SEP” value turned out to be 29.0%.
In the case of `C[C@]12Cc3cnn(-c4ccc(F)cc4)c3C=C1CC[C@@H]2CN(CCO)S(=O)(=O)c1cccc(Cl)c1Cl` [Example 61, 2,3-dichloro-N-{[(4αR,5S)-1-(4-fluorophenyl)-4α-methyl-1,4,4α,5,6,7-hexahydrocyclopenta[f]indazol-5-yl]methyl}-N-(2-hydroxyethyl)benezenesulfonamide], the figures for the Emax at human GR [1], on human GR [2] (setting [3]) and on human GR [2] (setting [4]) were 5.8%, 31.3% and over 5%, respectively. Moreover, the EC50 was determined as 417 nM on human GR [1] and 1550 nM at human GR [2]. Also, the “GITAR > GRAMM % SEP” value on human GR [2] is given as 25.5%.
With `C[C@]12Cc3cnn(-c4ccc(F)cc4)c3C=C1CC[C@@H]2CNS(=O)(=O)Cc1cccnc1` [Example 169, N-{[(4αR,5S)-1-(4-fluorophenyl)-4α-methyl-1,4,4α,5,6,7-hexahydrocyclopenta[f]indazol-5-yl]methyl}-1-pyridin-3-ylmethanesulfonamide], the figures for the Emax on human GR [1], at human GR [2] (setting [3]) and at human GR [2] (setting [4]) were 12.4%, 68.5% and over 5%, respectively. Also, the EC50 on human GR [1] worked out at 1660 nM; on human GR [2], 3030 nM. Moreover, the “GITAR > GRAMM % SEP” value on human GR [2] stood at 56.1%.
Take `Cc1noc(C)c1S(=O)(=O)N(CC1CCCO1)C[C@H]1CCC2=Cc3c(cnn3-c3ccc(F)cc3)C[C@@]21C` (stereo partly drawn) [Example 170, N-{[(4αR,5S)-1-(4-fluorophenyl)-4α-methyl-1,4,4α,5,6,7-hexahydrocyclopenta[f]indazol-5-yl]methyl}-3,5-dimethyl-N-(tetrahydrofuran-2-ylmethyl)isoxazole-4-sulfonamide]: the Emax at human GR [1] is 76%; at human GR [2] (setting [3]), 87.7%; on human GR [2] (setting [4]), over 5%. The EC50 worked out at 432 nM at human GR [1] and 759 nM at human GR [2]. For the same compound, at human GR [2], the “GITAR > GRAMM % SEP” value was 11.8%.
`CCS(=O)(=O)N(CCOC)C[C@H]1CCC2=Cc3c(cnn3-c3ccc(F)cc3)C[C@@]21C` [Example 171, N-{[(4αR,5S)-1-(4-fluorophenyl)-4α-methyl-1,4,4α,5,6,7-hexahydrocyclopenta[f]indazol-5-yl]methyl}-N-(2-methoxyethyl)ethanesulfonamide]: the Emax is 71.3% on human GR [1], 88% on human GR [2] (setting [3]) and over 5% at human GR [2] (setting [4]). In addition, the values for the EC50 at human GR [1] and on human GR [2] were 287 nM and 410 nM, respectively. In addition, at human GR [2], the “GITAR > GRAMM % SEP” value worked out at 16.7%.
`COCCN(C[C@H]1CCC2=Cc3c(cnn3-c3ccc(F)cc3)C[C@@]21C)S(=O)(=O)c1cn(C)nc1C(F)(F)F` [Example 172, N-{[(4αR,5S)-1-(4-fluorophenyl)-4α-methyl-1,4,4α,5,6,7-hexahydrocyclopenta[f]indazol-5-yl]methyl}-N-(2-methoxyethyl)-1-methyl-3-(trifluoromethyl)-1H-pyrazole-4-sulfonamide]: the Emax on human GR [1] was 10.7%; on human GR [2] (setting [3]) it was 42.4%; at human GR [2] (setting [4]) it was over 5%. Moreover, the EC50 at human GR [1] turned out to be 398 nM; at human GR [2], 718 nM. For the same compound, on human GR [2], the “GITAR > GRAMM % SEP” value is 31.8%.
For the compound `COCCN(C[C@H]1CCC2=Cc3c(cnn3-c3ccc(F)cc3)C[C@@]21C)S(=O)(=O)c1c(C)noc1C` [Example 173, N-{[(4αR,5S)-1-(4-fluorophenyl)-4α-methyl-1,4,4α,5,6,7-hexahydrocyclopenta[f]indazol-5-yl]methyl}-N-(2-methoxyethyl)-3,5-dimethylisoxazole-4-sulfonamide], the Emax at human GR [1] is 70.4%; at human GR [2] (setting [3]), 83%; on human GR [2] (setting [4]) it was over 5%. For the same compound, the EC50 was 364 nM on human GR [1] and 520 nM at human GR [2]. Moreover, the “GITAR > GRAMM % SEP” value on human GR [2] is on record as 12.6%.
